Data published in patent US20020107404A1, “Sulfur-containing indirubin derivatives, their production and use” (Schering AG, priority 2000, published 2002).

Columns and labels:
HCT116 = assay: Proliferation assay, HCT116; assay type: cell-based; details: Homo sapiens, HCT-116, 96 h; comparison table; 4 days incubation, crystal violet
Protocol: (§1) Cultivated human tumor cells (as indicated) were flattened out at a density of 5000 cells/measuring point in a 96-well multititer plate in 200 μl of the corresponding growth medium. After 24 hours, the cells of one plate (zero-point plate) were colored with crystal violet (see below), while the medium of the other plates was replaced by fresh culture medium (200 μl), to which the test substances were added in various concentrations (0 μm, as well as in the range of 0.01-30 μm; the final concentration of the solvent dimethyl sulfoxide was 0.5%. The cells were incubated for 4 days in the presence of test substances. The cell proliferation was determined by coloring the cells with crystal violet: the cells were fixed by adding 20 μl/measuring point of a 11% glutaric aldehyde solution for 15 minutes at room temperature. After three washing cycles of the fixed cells with water, the plates were dried at room temperature. The cells were colored by adding 100 μl/measuring point of a 0.1% crystal violet solution (pH was set at 3 by adding acetic acid). […] The extinction was determined by photometry at a wavelength of 595 nm. The change of cell growth, in percent, was calculated by standardization of the measured values to the extinction values of the zero-point plate (=0%) and the extinction of the untreated (0 μm) cells (=100%).

MCF-7 = assay: Proliferation assay, MCF-7; assay type: cell-based, human; details: MCF7, 96 h, 4 days incubation, crystal violet
Protocol: Cultivated human tumor cells (as indicated) were flattened out at a density of 5000 cells/measuring point in a 96-well multititer plate in 200 μl of the corresponding growth medium. After 24 hours, the cells of one plate (zero-point plate) were colored with crystal violet (see below), while the medium of the other plates was replaced by fresh culture medium (200 μl), to which the test substances were added in various concentrations (0 μm, as well as in the range of 0.01-30 μm; the final concentration of the solvent dimethyl sulfoxide was 0.5%. The cells were incubated for 4 days in the presence of test substances. The cell proliferation was determined by coloring the cells with crystal violet: the cells were fixed by adding 20 μl/measuring point of a 11% glutaric aldehyde solution for 15 minutes at room temperature. After three washing cycles of the fixed cells with water, the plates were dried at room temperature. The cells were colored by adding 100 μl/measuring point of a 0.1% crystal violet solution (pH was set at 3 by adding acetic acid). After three washing cycles of the colored cells with water, the plates were dried at room temperature. The dye was dissolved by adding 100 μl/measuring point of a 10% acetic acid solution. The extinction was determined by photometry at a wavelength of 595 nm. The change of cell growth, in percent, was calculated by standardization of the measured values to the extinction values of the zero-point plate (=0%) and the extinction of the untreated (0 μm) cells (=100%).

H460 = assay: Proliferation assay, H460; assay type: cell-based; details: Homo sapiens, NCI-H460, 96 h; comparison table; 4 days incubation, crystal violet
Protocol: as §1

CDK2/CycE = target: T1, CDK2/CycE (Homo sapiens, UniProt P24941); assay: CDK2/CycE kinase assay; assay type: biochemical; details: recombinant CDK2/CycE, histone IIIS substrate, 0.5 μm ATP
T1 construct: GST; purchased Dr. Dieter Marmé, Klinik für Tumorbiologie, Freiburg (external academic supplier); host or cells: baculovirus-infected Sf9 insect cells
Protocol: Recombinant CDK2- and CycE-GST-fusion proteins, purified from baculovirus-infected insect cells (Sf9), were obtained by Dr. Dieter Marmé, Klinik für Tumorbiologie [Clinic for Tumor Biology], Freiburg. Histone IIIS, which was used as a kinase substrate, was purchased by the Sigma Company.
CDK2/CycE (50 ng/measuring point) was incubated for 15 minutes at 22° C. in the presence of various concentrations of test substances (0 μm, as well as within the range of 0.01-100 μm) in assay buffer [50 mmol of tris/HCl pH 8.0, 10 mmol of MgCl2, 0.1 mmol of Na ortho-vanadate, 1.0 mmol of dithiothreitol, 0.5 μm of adenosine triphosphate (ATP), 10 μg/measuring point of histone IIIS, 0.2 μCi/measuring point of ^33P-gamma ATP, 0.05% NP40, 12.5% dimethyl sulfoxide]. The reaction was stopped by adding EDTA solution (250 mmol, pH 8.0, 14 μl/measuring point).
From each reaction batch, 10 μl was applied to P30 filter strips (Wallac Company), and non-incorporated ^33P-ATP was removed by subjecting the filter strips to three washing cycles for 10 minutes each in 0.5% phosphoric acid. After the filter strips were dried for one hour at 70° C., the filter strips were covered with scintillator strips (MeltiLex™ A, Wallac Company) and baked for one hour at 90° C. The amount of incorporated ^33p (substrate phosphorylation) was determined by scintillation measurement in a gamma-radiation measuring device (Wallac).

DU145 = assay: Proliferation assay, DU145; assay type: cell-based; details: Homo sapiens, DU-145, 96 h; comparison table; 4 days incubation, crystal violet
Protocol: as §1

## C[S+]([O-])c1ccc2c(c1)/C(=C1/Nc3ccccc3C1=O)C(=O)N2 (stereo not drawn) [Example 2.0, 5-Methylsulfinyl-indirubin]
HCT116
  IC50: 2500 nM
MCF-7; Homo sapiens, comparison table
  IC50: 1500 nM
H460
  IC50: 4000 nM
other
  melting point: 284 °C
CDK2/CycE; comparison table
  IC50: 80 nM
DU145
  IC50: 6 µM

## CSc1ccc2c(c1)/C(=C1/Nc3ccc(NC(C)=O)cc3C1=O)C(=O)N2 [Example 5.0, 5-Methysulfanyl-5′-N-acetylindirubin]
MCF-7; human tumor cells
  IC50: 5000 nM
CDK2/CycE
  IC50: 110 nM

## CSc1ccc2c(c1)/C(=C1/Nc3ccccc3/C1=N\O)C(=O)N2 [Example 4.0, 5-Methylsulfanyl-3′,-hydroyimino-indirubin]
HCT116
  IC50: 600 nM
MCF-7; Homo sapiens, comparison table
  IC50: 700 nM
H460
  IC50: 1000 nM
other
  melting point: 156 °C
CDK2/CycE; comparison table
  IC50: 20 nM
DU145
  IC50: 1 µM

## CSc1ccc2c(c1)/C(=C1/Nc3ccccc3C1=O)C(=O)N2 [Example 1.0, 5-Methylsulfanyl-indirubin]
MCF-7; Homo sapiens, comparison table
  IC50: 500 nM
other
  melting point: > 210 °C
CDK2/CycE; comparison table
  IC50: 300 nM

## CSc1ccc2c(c1)/C(=C1/Nc3ccc(OCc4ccccc4)cc3C1=O)C(=O)N2 [Example 5.1]
CDK2/CycE
  IC50: 5000 nM
